Assay in all cases: relative viability (nuclei count vs DMSO), 5 days (fraction); higher = more cells survive
Compound in experiment [1]: C=CCn1c(=O)c2cnc(Nc3ccc(N4CCN(C)CC4)cc3)nc2n1-c1cccc(C(C)(C)O)n1 [Adavosertib] + C[C@@H](Oc1cc(-c2cnn(C3CCNCC3)c2)cnc1N)c1c(Cl)ccc(F)c1Cl [Crizotinib] (partner 1 µM)
In short, it runs like this:
(§1)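 The day after seeding in 1536-well plates, lung cancer cell lines were treated by pin tool with a single drug, or with a fixed anchor-drug dose together with five library-drug doses (not always all listed) in √10 steps. After 5 days, a combined fix-and-stain solution (final 0.05% Triton X-100, 1% formaldehyde, 1 ug/ml Hoechst) was added. Nuclei counted on 4× images gave relative viability as treated counts over vehicle counts, reported as the median of duplicate plates.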

Compound in experiment [2]: COc1nc(N)nc2c1ncn2[C@@H]1O[C@H](CO)[C@@H](O)[C@@H]1O [Nelarabine] + CC(=O)c1c(C)c2cnc(Nc3ccc(N4CCNCC4)cn3)nc2n(C2CCCC2)c1=O [Palbociclib] (partner 0.5 µM)
In short, it runs like this: as §1

Compound in experiment [3]: COc1nc(N)nc2c1ncn2[C@@H]1O[C@H](CO)[C@@H](O)[C@@H]1O [Nelarabine] + Cc1cc(Nc2cc(N3CCN(C)CC3)nc(Sc3ccc(NC(=O)C4CC4)cc3)n2)n[nH]1 [Tozasertib] (partner 0.1 µM)
In short, it runs like this: as §1

Compound in experiment [4]: C=CCn1c(=O)c2cnc(Nc3ccc(N4CCN(C)CC4)cc3)nc2n1-c1cccc(C(C)(C)O)n1 [Adavosertib] + NC(=O)Nc1cc(-c2cccc(F)c2)sc1C(=O)N[C@H]1CCCNC1 [AZD7762] (partner 0.2 µM)
The procedure, abridged: as §1

Regarding EMC-BAC-2, the relative viability in experiment [1] (first compound 0.01 µM) amounted to 0.846; in experiment [1] (first compound 0.03162 µM), 0.754; in experiment [1] (first compound 0.1 µM) it was 0.887; in experiment [1] (first compound 0.3162 µM) it was 0.811; in experiment [2] (first compound 0.01 µM), 0.539; in experiment [2] (first compound 0.03162 µM), 0.514. The relative viability in experiment [2] (first compound 0.1 µM) turned out to be 0.512; in experiment [2] (first compound 0.3162 µM), 0.529; in experiment [2] (first compound 1 µM), 0.514; in experiment [3] (first compound 0.01 µM) it was 0.307; in experiment [3] (first compound 0.03162 µM) it was 0.236; in experiment [3] (first compound 0.1 µM), 0.277. Further, the relative viability was 0.239 in experiment [3] (first compound 0.3162 µM); 0.297 in experiment [3] (first compound 1 µM); 1.15 in experiment [4] (first compound 0.03162 µM); 0.887 in experiment [4] (first compound 0.1 µM); 1.06 in experiment [4] (first compound 0.3162 µM).
